Results on six compounds are retold here after ChEMBL document CHEMBL1155256, “A new small molecule that directly inhibits the DNA binding of NF-kappaB” (Bioorg Med Chem, 2009).

The structures appear in SMILES notation.

For the assay, the target named is T1, Nuclear factor NF-kappa-B p105 subunit (Homo sapiens, UniProt P19838).
T1 sequence (P19838 whole entry): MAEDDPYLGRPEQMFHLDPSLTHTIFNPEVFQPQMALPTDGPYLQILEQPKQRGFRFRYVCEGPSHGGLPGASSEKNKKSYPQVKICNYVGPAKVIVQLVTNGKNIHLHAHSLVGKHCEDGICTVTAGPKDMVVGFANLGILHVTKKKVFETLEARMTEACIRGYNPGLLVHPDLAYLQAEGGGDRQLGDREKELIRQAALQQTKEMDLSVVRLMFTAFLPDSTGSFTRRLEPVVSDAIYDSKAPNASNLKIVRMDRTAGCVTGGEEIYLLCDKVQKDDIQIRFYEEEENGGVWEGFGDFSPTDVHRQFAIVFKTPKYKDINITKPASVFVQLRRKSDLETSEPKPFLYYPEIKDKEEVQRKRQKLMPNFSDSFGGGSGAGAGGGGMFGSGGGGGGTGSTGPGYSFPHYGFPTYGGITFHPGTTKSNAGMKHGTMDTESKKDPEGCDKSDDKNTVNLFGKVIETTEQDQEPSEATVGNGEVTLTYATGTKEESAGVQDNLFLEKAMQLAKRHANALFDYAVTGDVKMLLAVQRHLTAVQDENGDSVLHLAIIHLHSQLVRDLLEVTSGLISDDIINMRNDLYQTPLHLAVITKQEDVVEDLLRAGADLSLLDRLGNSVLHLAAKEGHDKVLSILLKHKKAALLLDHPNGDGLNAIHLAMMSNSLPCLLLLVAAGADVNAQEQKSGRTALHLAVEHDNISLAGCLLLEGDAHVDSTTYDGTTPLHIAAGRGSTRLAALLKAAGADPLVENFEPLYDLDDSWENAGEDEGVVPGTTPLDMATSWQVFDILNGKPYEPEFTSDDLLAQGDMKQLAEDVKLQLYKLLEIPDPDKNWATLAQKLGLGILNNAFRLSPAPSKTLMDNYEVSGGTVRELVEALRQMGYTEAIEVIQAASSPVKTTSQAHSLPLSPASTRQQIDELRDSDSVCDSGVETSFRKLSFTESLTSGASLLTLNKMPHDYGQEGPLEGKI
Kind of assay: Inhibition of GST-fused human NF-kappaB p50 subunit DNA binding activity assessed as shortened diffusion time by fluorescence correlation spectroscopy.

For `Cc1cccc(Nc2nc(Cl)nc(Cl)n2)c1`, the IC50 worked out at 19 µM.
For the compound `Clc1ccc(Nc2nc(Cl)nc(Cl)n2)cc1`, the IC50 worked out at 110 µM.
Consider `O=[N+]([O-])c1cccc(Nc2nc(Cl)nc(Cl)n2)c1`, for which the IC50 was 119 µM.
Turning to `O=[N+]([O-])c1ccc(Nc2nc(Cl)nc(Cl)n2)cc1`, the 50% inhibitory concentration (IC50) was over 300 µM.
Take `Clc1nc(Cl)nc(Nc2ccccc2)n1`: the IC50 came to 28.6 µM.
As to `CC(C)c1ccc(Nc2nc(Cl)nc(Cl)n2)cc1`, the half-maximal inhibitory concentration (IC50) was 74.4 µM.

The IC50 is the midpoint of a concentration-inhibition curve.
